These results are taken from patent US20080200405A1, “Drug Resistance Reversal In Neoplastic Disease” (priority 2007, published 2008).

Each structure is given as a SMILES string.

A short description of data set [1]: In vitro stability of OT-551 in dog plasma. Type of data set: in vitro ADME. How it is done: The active metabolite of OT-551 (Cyclopropanecarboxylic acid 1-hydroxy-2,2,6,6-tetramethyl-piperidin-4-yl ester) is TP-H. The objective of this analysis was to determine the in vitro half-life of OT-551 in rat, rabbit, dog, and human plasma under standardized incubation conditions.
OT-551 was incubated with pooled rat, rabbit, dog, and human plasma for various times under standardized incubation conditions. Pre-labeled tubes containing pooled plasma from rats, rabbits, dogs, and humans were pre-incubated in a shaking 37° C. water bath. A OT-551 solution was added to the tubes at a final concentration of 1000 ng/mL. Time zero samples (n=5) were immediately removed and transferred into tubes containing a stabilizer solution (DTPA, acetylcysteine and ascorbic acid), the LC/MS/MS assay internal standard and methanol. […] The tubes were vortexed, placed on ice, followed by centrifugation. One hundred-μL aliquots of the supernatant were transferred into HPLC sample vials. Additional tubes (n=5 at each time point) were incubated for 5, 10, 20, 30, 60, 120, and 240 minutes at 37° C. and thereafter processed. The amount of OT-551 and TP-H in each incubated sample was quantified using validated LC/MS/MS assays.

A short description of data set [2]: Ocular permeability and retina levels after topical administration. It counts as in vivo.
The subject of data set [3] is TNFα. Briefly: Measurement of LPS Induced-TNFα in THP-1 Cells. Type of data set: cell-based, human. To be noted: compound 10 uM, 5 ng/mL LPS.
The test system of data set [4] is bFGF-induced angiogenesis in the CAM model. In words: bFGF (FGF2)-stimulated CAM model. It counts as in vivo, chicken. To be noted: for Mean % Inhibition ± SD / Mean Branch points ± SEM: bFGF 1 μg/ml.
The test system of data set [5] is selenite induced cataract. Briefly: Selenite induced cataract in mice. To be noted: mouse, in vivo. From the text:
In addition, as mentioned above, there is no precedent for the prevention of growth factor-induced angiogenesis by either TEMPOL or hydroxylamines.

Data set [6] deals with H2O2-induced angiogenesis in the CAM model. In words: H2O2-induced angiogenesis in the CAM model. Type of data set: in vivo, chicken. To be noted: for % Inhibition ± SD / Branch pts ± SEM: H2O2 88 μM, 30 ng. How it is done:
In vivo neovascularization was examined by the method previously described by Auerbach et al. (J. Dev. Biol. 41:391-394 (1974)). Ten-day old chicken embryos were purchased from Spafas, Inc. (Preston, Conn.) and were incubated at 37° C. with 55% relative humidity. In the dark, with the aid of a candling lamp, a small hole was punctured in the shell concealing the air sac with a hypodermic needle. A second hole was punctured in the shell on the broadside of the egg directly over an […] portion of the embryonic membrane, as observed during candling. An artificial air sac was created beneath the second hole by applying gentle vacuum to the first hole using a small rubber squeeze bulb. The vacuum caused the chorioallantoic membrane (CAM) to separate from the shell.
A pro-angiogenic agent was added to induce new blood vessel branches on the CAM of 10-day old embryos. Filter disks of #1 filter paper (Whatman International, United Kingdom) were punched using a small puncher and were soaked in 3 mg/mL cortisone acetate (Sigma, St. Louis, Mo.) in a solution (95% ethanol and water). The disks were subsequently air dried under sterile conditions. The disks were then suspended in PBS (Phosphate Buffered Saline) and placed on growing CAMs. Filters treated with TP-H (TEMPOL-H) or TEMPOL and/or H2O2 or TP-H and/or bFGF or VEGF were placed on the first day of the 3-day incubation.
The number of vessel branch points contained in a circular region equal to the area of a filter disk was counted for each section. Percent inhibition data are expressed as the quotient of the experimental value minus the negative control value divided by the difference between the positive control value and the negative control value. One image was counted in each CAM preparation, and findings from eight CAM preparations were analyzed for each treatment condition. In addition, each experiment was performed three times. The resulting angiogenesis index is the mean ±SEM (Standard Error of Measurement) of new branch points in each set of treatment. Statistical analysis of blood vessel branching patterns are performed by 1-way analysis of variance (ANOVA) comparing experimental with corresponding control groups. Statistical significance differences are assessed at P value of <0.05.
TP-H (TEMPOL-H, the hydroxylamine reduced form of the nitroxide 4-hydroxy-2,2,6,6-tetramethylpiperidin-1-yloxy) or TEMPOL (4-hydroxy-2,2,6,6-tetramethylpiperidine-N-oxyl radical) was applied to the CAM model study to determine its respective anti-angiogenesis effects according to the materials and methods provided in Example 1. H2O2 was used to induce angiogensis in the CAM model.

Regarding `CC1(C)CC(OC(=O)C2CC2)CC(C)(C)N1O.Cl` [OT-551, 1-hydroxy-4-cyclopropanecarbonyloxy-2,2,6,6-tetramethylpiperidine hydrochloride], the “Concentrations (ng/mL) of OT-551 in Dog Plasma” value in data set [1] (incubation time 0 min) was found to be 771.12 ± 21.68 ng/mL; in data set [1] (incubation time 5 min), 804.93 ± 17.45 ng/mL; in data set [1] (incubation time 10 min), 811.14 ± 21.06 ng/mL; in data set [1] (incubation time 20 min) it was 809.01 ± 18.58 ng/mL; in data set [1] (incubation time 30 min) it was 789.53 ± 13.73 ng/mL; in data set [1] (incubation time 60 min), 717.22 ± 25.73 ng/mL. The “Concentrations (ng/mL) of OT-551 in Dog Plasma” value in data set [1] (incubation time 120 min) is 608.14 ± 25.96 ng/mL; in data set [1] (incubation time 240 min) it was 428.20 ± 12.03 ng/mL. Also, in data set [2] (after topical administration), the “levels in the retina” value is recorded as “good levels in the retina”. For the same molecule, the “permeability through the cornea” value in data set [2] (in vivo) is reported as “good permeability through the cornea”. Also, the inhibition at 10 µM in data set [3] (Homo sapiens, THP-1, read-out: Mean Percent Inhibition of TNF-alpha using 5 ng/mL LPS) amounted to 68 ± 6%. Besides, the inhibition in vivo at 0.03 mg in data set [4] (Gallus gallus, bFGF/FGF2 1 ug, 30 ug injected, read-out: % Inhibition ± SEM) turned out to be 74 ± 4%. The “Branch pts ± SEM” value in data set [4] (bFGF/FGF2 1 ug, 30 ug injected) is reported as 87 ± 3.

`CC1(C)CC(O)CC(C)(C)N1O` [TEMPOL-H]: the “prevention of selenite induced cataract” value in data set [5] is reported as “effective”. In addition, the “Concentrations (ng/mL) of TP-H in Dog Plasma” value in data set [1] (OT-551 incubation time 0 min) was found to be 0.00 ± 0.00 ng/mL; in data set [1] (OT-551 incubation time 5 min), 5.85 ± 0.73 ng/mL; in data set [1] (OT-551 incubation time 10 min), 8.77 ± 0.65 ng/mL; in data set [1] (OT-551 incubation time 20 min), 12.79 ± 0.74 ng/mL; in data set [1] (OT-551 incubation time 30 min), 16.22 ± 0.67 ng/mL; in data set [1] (OT-551 incubation time 60 min), 25.68 ± 1.04 ng/mL. Further, the entries for the “Concentrations (ng/mL) of TP-H in Dog Plasma” value in data set [1] (OT-551 incubation time 120 min) and in data set [1] (OT-551 incubation time 240 min) were 39.31 ± 1.09 ng/mL and 53.92 ± 1.68 ng/mL, respectively. For the same molecule, the “% Inhibition ± SD” value in data set [6] (100 μg) is 28.0 ± 13.6 %; in data set [6] (200 μg) it was 32.9 ± 8.4 %; in data set [6] (400 μg) it was 44.7 ± 6.6 %; in data set [6] (800 μg), 55.7 ± 7.2 %. Further, the “Branch pts ± SEM” value in data set [6] (100 μg) stood at 155 ± 14.4; in data set [6] (200 μg), 151.3 ± 15.3; in data set [6] (400 μg), 137.2 ± 6.9; in data set [6] (800 μg) it was 127.3 ± 6.4. In data set [6] (in vivo), the “inhibition of angiogenesis induced by super-maximal concentrations of H2O2” value is on record as “effectively inhibited”. Moreover, in data set [3], the “Mean Percent Inhibition of TNF-alpha using 5 ng/mL LPS” value was 74 ± 8%. The “inhibition of bFGF-induced angiogenesis” value in data set [4] (100-400 μg) is on record as “dose-dependent inhibition”. For the same molecule, the “Mean % Inhibition ± SD” value in data set [4] (100 μg) was 20 ± 12%; in data set [4] (200 μg) it was 45.3 ± 7.5 %; in data set [4] (400 μg) it was 58.7 ± 10.9 %; in data set [4] (800 μg) it was 28.1 ± 6.8 %. In addition, the “Mean Branch points ± SEM” value in data set [4] (100 μg) is recorded as 172 ± 12.4; in data set [4] (200 μg) it was 147.2 ± 7.5; in data set [4] (400 μg) it was 133.8 ± 10.8; in data set [4] (800 μg), 164.2 ± 6.7.
